Blank lines part the entries; values can stand above or below the molecule they belong to.
Tests used:
[1] = Storage stability of polymorphs; type: physicochemical; conditions: for change after 1 week storage (crystallinity / x-ray powder diffraction pattern, colour): 1 week at 40° C. and 75% RH
[2] = Aqueous solubility determination (thermodynamic solubility); conditions: for Appearance of mixture after equilibration for 24 hours: suspended in 0.25 mL of water, 25° C.; for pH of saturated solution / Concentration of filtrate (as mg/ml of free base): water, equilibrated at 25° C. for 24 hours; for Concentration of filtrate (as mg/ml of free base): HPLC
[3] = Gravimetric Vapor Sorption (GVS); conditions: 25° C.; for hygroscopicity in words: GVS; for total weight change: between 0% RH and 90% RH
[4] = test system: allergen-induced early and late phases of lung-volume decline; conditions: clinical trials / allergen-challenge studies; cited from earlier work
[5] = molecular target: CYP2D6 (Homo sapiens, UniProt P10635); conditions: microsomes
Sequence of CYP2D6 (P10635 whole entry): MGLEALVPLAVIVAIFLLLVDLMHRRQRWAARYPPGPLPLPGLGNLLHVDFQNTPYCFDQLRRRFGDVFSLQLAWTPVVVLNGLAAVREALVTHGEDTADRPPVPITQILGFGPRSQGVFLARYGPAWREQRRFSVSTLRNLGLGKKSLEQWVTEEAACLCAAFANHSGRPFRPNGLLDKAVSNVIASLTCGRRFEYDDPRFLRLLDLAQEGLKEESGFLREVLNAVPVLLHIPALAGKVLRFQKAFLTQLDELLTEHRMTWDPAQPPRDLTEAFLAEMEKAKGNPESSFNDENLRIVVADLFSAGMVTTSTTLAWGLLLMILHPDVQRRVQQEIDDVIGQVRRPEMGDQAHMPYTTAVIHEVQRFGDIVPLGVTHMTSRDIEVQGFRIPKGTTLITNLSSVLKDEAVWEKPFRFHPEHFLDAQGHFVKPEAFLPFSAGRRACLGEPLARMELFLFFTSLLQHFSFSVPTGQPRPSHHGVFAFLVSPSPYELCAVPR

[6] = molecular target: CYP2C19 (Homo sapiens, UniProt P33261); conditions: microsomes
Sequence of CYP2C19 (P33261 whole entry): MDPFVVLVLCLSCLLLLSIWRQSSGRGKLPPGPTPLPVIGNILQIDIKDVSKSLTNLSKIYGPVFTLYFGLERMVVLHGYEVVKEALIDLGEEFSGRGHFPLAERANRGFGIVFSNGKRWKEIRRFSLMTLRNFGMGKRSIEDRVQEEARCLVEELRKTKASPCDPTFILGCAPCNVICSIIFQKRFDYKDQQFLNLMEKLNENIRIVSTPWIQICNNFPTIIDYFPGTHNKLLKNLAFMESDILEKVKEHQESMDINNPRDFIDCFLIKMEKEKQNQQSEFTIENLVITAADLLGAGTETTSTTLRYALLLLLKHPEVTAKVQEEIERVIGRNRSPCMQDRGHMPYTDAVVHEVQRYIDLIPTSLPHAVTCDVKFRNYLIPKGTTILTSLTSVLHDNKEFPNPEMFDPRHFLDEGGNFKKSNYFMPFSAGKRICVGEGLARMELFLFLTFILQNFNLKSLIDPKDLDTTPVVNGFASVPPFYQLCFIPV

[7] = test system: whole blood ionophore-stimulated leukotriene LTB4; assay: Phase 1 study, whole blood ionophore-stimulated LTB4; type: in vivo, human
Experimental: (§1) Pharmacodynamics: Whole blood ionophore-stimulated leukotriene LTB4 and urinary LTE4 production are assayed by ELISA and mass spectrometry, respectively.
(§2) Obtain pre-dose fasting blood samples for hematology determinations. Obtain pre-dose fasting blood samples for serum chemistry determinations. Obtain pre-dose blood samples (5 mL EDTA and 4 mL heparinized) for baseline PK and LTB4. Collect ‘spot’ urine prior to study drug administration for baseline (pre-dose) LTE4. Administer study drug. […] Collect blood samples (2 mL heparinized) for LTB4 at 0.5, 1, 2, 3, 4, 6, 8, and 12 hours. Collect urine for LTE4 for the following separate intervals: 0-3, 3-6, 6-9, and 9-12 hours. For twice daily dosing group (if conducted): administer study drug 12 hours±30 minutes after prior dose, preceded by ≧2 hours fast.
(§3) Obtain pre-dose fasting blood samples for hematology determinations. Obtain pre-dose fasting blood samples for serum chemistry determinations. […] Collect blood samples (2 mL heparinized) for LTB4 at 24 hours after the first study drug administration; 4 mL blood will be collected at this time point in the Single Dose Phase. Collect ‘spot’ urine sample for LTE4 at 24 and 36 hours after first study drug administration.
(§4) Obtain pre-dose blood samples (5 mL EDTA and 2 mL heparinized) for PK and LTB4. Collect pre-dose urine for LTE4. Administer study drug (last dose of drug). […] Collect blood samples (2 mL heparinized) for LTB4 at 0.5, 1, 2, 3, 4, 6, 8, and 12 hours. Collect urine for LTE4 for the following separate intervals: 0-3, 3-6, 6-9, and 9-12 hours after study drug administration.
(§5) Record vital signs 24 hours after Day 11 study drug administration. […] Collect blood sample (4 mL heparinized) for LTB4 at 24 hours after Day 11 study drug administration. Collect ‘spot’ urine sample for LTE4 at 24 hours after Day 11 study drug administration.
(§6) Whole blood ionophore-stimulated leukotriene LTB4 and urinary LTE4 production were assayed by ELISA and mass spectrometry, respectively.

[8] = test system: CYP2C9; conditions: tested at 10 μM; diclofenac substrate
[9] = molecular target: CYP2C9 (Homo sapiens, UniProt P11712); conditions: microsomes
Sequence of CYP2C9 (Homo sapiens, UniProt P11712) (P11712 whole entry): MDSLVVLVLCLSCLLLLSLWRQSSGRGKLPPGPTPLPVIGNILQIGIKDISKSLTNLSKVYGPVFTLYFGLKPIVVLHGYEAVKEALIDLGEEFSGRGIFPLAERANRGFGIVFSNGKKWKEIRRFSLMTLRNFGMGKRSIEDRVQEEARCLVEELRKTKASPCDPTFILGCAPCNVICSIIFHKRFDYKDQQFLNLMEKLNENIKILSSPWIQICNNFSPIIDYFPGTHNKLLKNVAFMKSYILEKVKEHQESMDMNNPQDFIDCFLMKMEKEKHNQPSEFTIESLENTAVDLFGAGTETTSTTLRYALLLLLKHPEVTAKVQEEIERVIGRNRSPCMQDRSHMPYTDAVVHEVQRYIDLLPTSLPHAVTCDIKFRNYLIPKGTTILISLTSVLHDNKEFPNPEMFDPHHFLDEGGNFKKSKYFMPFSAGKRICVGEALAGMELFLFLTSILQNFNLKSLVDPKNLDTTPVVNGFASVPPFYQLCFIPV

[10] = test system: urinary LTE4 production; assay: Phase 1 study, urinary LTE4; type: in vivo, human
Experimental: as §1, §2, §3, §4, §5, §6

[11] = molecular target: T1, CYP1A2 (Homo sapiens, UniProt P05177)
T1 sequence (P05177 1-516): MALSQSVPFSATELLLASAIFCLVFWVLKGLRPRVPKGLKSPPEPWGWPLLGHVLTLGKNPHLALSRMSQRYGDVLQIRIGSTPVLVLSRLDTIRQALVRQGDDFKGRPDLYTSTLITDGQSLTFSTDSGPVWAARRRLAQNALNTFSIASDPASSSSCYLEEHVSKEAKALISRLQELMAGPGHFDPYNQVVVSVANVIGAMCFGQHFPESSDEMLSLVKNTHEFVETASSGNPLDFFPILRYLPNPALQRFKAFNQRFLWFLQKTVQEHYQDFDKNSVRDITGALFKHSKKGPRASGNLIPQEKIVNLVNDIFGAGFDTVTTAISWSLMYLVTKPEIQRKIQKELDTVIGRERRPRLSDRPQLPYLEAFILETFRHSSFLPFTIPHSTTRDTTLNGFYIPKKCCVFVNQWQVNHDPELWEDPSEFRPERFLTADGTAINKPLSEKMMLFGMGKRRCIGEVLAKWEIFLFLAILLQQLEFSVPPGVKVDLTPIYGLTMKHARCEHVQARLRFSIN

[12] = molecular target: CYP3A4 (Homo sapiens, UniProt P08684); conditions: microsomes
Sequence of CYP3A4 (P08684 whole entry): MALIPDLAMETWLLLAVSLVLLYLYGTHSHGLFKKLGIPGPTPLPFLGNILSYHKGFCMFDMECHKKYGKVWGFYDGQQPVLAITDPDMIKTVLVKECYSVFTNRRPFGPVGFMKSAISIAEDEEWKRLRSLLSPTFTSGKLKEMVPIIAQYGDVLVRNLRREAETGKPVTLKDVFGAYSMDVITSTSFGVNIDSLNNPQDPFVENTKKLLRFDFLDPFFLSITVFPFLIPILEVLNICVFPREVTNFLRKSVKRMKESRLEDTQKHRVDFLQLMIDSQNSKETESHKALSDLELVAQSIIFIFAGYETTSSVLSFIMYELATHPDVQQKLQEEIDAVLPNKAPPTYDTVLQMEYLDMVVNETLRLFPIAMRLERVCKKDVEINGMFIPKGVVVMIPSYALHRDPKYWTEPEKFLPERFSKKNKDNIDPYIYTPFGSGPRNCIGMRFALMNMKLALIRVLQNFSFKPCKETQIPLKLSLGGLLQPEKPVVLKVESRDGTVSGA

[13] = Examination of liver weight change in mice; conditions: oral 250 mg/kg daily for 4 days, compared with vehicle control
Experimental: Twenty-four hours following the final administration mice were placed into an enclosed Plexiglas chamber and exposed to CO2 for a period of 1-2 minutes or until breathing ceased. They were then removed and blood was taken via a cardiac puncture and cervical dislocation was performed. Subjects were next placed in a supine position and a midline incision made. All organs were inspected and the livers removed by careful dissection. Liver weights were recorded as well as any gross abnormalities.

[14] = test system: chronic asthma; conditions: chronic asthma studies; cited from earlier work
[15] = pH solubility profile; type: physicochemical; conditions: about 25° C.
[16] = Cycle 1, Scan 1, Adsorption, % RH load to 40
[17] = Cycle 1, Scan 2, Adsorption, % RH 0 to 40
[18] = Cycle 1, Scan 2, Adsorption, % RH 40 to 90
[19] = Cycle 1, Scan 2, Desorption, % RH 90 to 0
[20] = Cycle 2, Scan 3, Adsorption, % RH 40 to 90
[21] = Cycle 2, Scan 4, Adsorption, % RH 0 to 40
[22] = Cycle 2, Scan 4, Desorption, % RH 90 to 0
[23] = profile that may be obtained from a single dose administration to a human, dose not stated

change after 1 week storage (crystallinity / x-ray powder diffraction pattern, colour) [1]: No change
physical and chemical stability ([1]; 5° C., 25° C./60% RH and 40° C./75% RH for at least two months): physically and chemically stable
Appearance of mixture after equilibration for 24 hours [2]: Fine Suspension
pH of saturated solution [2]: 10.05
Concentration of filtrate (as mg/ml of free base) [2]: >10 mg/mL
stability to changes in humidity (XRPD after GVS experiment) [3]: stable to changes in humidity
% weight change [3, 16]: −0.37%
% weight change [3, 17]: 1.98%
% weight change [3, 18]: 13.83%
% weight change [3, 19]: −16.23%
% weight change [3, 20]: 14.52%
% weight change [3, 21]: 2.01%
% weight change [3, 22]: −16.51%
hygroscopicity in words [3]: hygroscopic
total weight change [3]: 16%
SMILES: COc1ccc(-c2ccc(Cn3c(CC(C)(C)C(=O)O)c(SC(C)(C)C)c4cc(OCc5ccccn5)ccc43)cc2)cn1 [Form C]
aqueous solubility compared between forms [2]: more soluble than Form B and the crystalline free acid

SMILES: O=C(O)[C@@H](c1ccc(OCc2ccc3ccccc3n2)cc1)C1CCCC1 [BAYX-1005, (R)-2-[4-(quinolin-2-yl-methoxy)phenyl]-2-cyclopentyl acetic acid]
efficacy in words [4]: shown efficacy

inhibition in words [5]: No apparent inhibition
inhibition in words [6]: weakly inhibited
CYP2C9 induction in words [8]: No apparent induction
inhibition in words [9]: No apparent inhibition
inhibition in words [11]: No apparent inhibition
IC50 ([12]; human, pH 7.4): > 50 µM
inhibition in words [12]: No apparent inhibition
SMILES: COc1ccc(-c2ccc(Cn3c(CC(C)(C)C(=O)O)c(SC(C)(C)C)c4cc(OCc5ccccn5)ccc43)cc2)cn1 [sodium 3-[5-(pyrid-2-ylmethoxy)-3-(2-methyl-2-propylthio)-1-] [sodium 3-[5-(pyridin-2-ylmethoxy)-3-(2-methyl-2-propylthio)-1-[4-(2-methoxypyridin-5-yl)benzyl]-indol-2-yl]-2,2-dimethyl-propionate]
inhibition of blood LTB4 levels at 8 hours (Ionophore Challenge) [7, 23]: ≥ 80%
inhibition of blood LTB4 levels at 24 hours (Ionophore Challenge) [7, 23]: ≥ 30%
inhibition of urinary LTE4 levels at 24 hours [10, 23]: ≥ 80%

liver weight alteration [13]: 36.0%
SMILES: CC(c1cc2ccccc2s1)N(O)C(N)=O (stereo not drawn) [Zileuton]
efficacy in words [14]: exhibited clinical efficacy
efficacy in words [4]: not effective

SMILES: CC(C)(C)Sc1c(CC(C)(C)C(=O)O)n(Cc2ccc(Cl)cc2)c2ccc(OCc3ccc4ccccc4n3)cc12 [MK-0591, 3-[1-(4-chlorobenzyl)-3-(tert-butylthio)-5-(quinolin-2-ylmethoxy)indol-2-yl]-2,2-dimethyl propanoic acid]
efficacy in words [14]: shown efficacy
efficacy in words [4]: shown efficacy

Appearance of mixture after equilibration for 24 hours [2]: Suspension
pH of saturated solution [2]: 7.88
Concentration of filtrate (as mg/ml of free base) [2]: 0.0019 mg/mL
stability to changes in humidity (XRPD after GVS experiment) [3]: stable to changes in humidity
% weight change ([3]; Cycle 1, Scan 1, Adsorption, % RH load to 40, listed as crystalline 3-[5-(pyridin-2-ylmethoxy)-3-(2-methyl-2-propylthio)-1-[4-(2-methoxy)): 0.00%
% weight change ([3]; Cycle 1, Scan 2, Adsorption, % RH 0 to 40, listed as crystalline 3-[5-(pyridin-2-ylmethoxy)-3-(2-methyl-2-propylthio)-1-[4-(2-methoxy)): 0.07%
% weight change ([3]; Cycle 1, Scan 2, Adsorption, % RH 40 to 90, listed as crystalline 3-[5-(pyridin-2-ylmethoxy)-3-(2-methyl-2-propylthio)-1-[4-(2-methoxy)): 0.34%
% weight change ([3]; Cycle 1, Scan 2, Desorption, % RH 90 to 0, listed as crystalline 3-[5-(pyridin-2-ylmethoxy)-3-(2-methyl-2-propylthio)-1-[4-(2-methoxy)): −0.42%
% weight change ([3]; Cycle 2, Scan 3, Adsorption, % RH 40 to 90, listed as crystalline 3-[5-(pyridin-2-ylmethoxy)-3-(2-methyl-2-propylthio)-1-[4-(2-methoxy)): 0.29%
% weight change ([3]; Cycle 2, Scan 4, Adsorption, % RH 0 to 40, listed as crystalline 3-[5-(pyridin-2-ylmethoxy)-3-(2-methyl-2-propylthio)-1-[4-(2-methoxy)): 0.08%
% weight change ([3]; Cycle 2, Scan 4, Desorption, % RH 90 to 0, listed as crystalline 3-[5-(pyridin-2-ylmethoxy)-3-(2-methyl-2-propylthio)-1-[4-(2-methoxy)): −0.40%
hygroscopicity in words ([3]; listed as Crystalline 3-[5-(pyrid-2-ylmethoxy)-3-(2-methyl-2-propylthio)-1-[4-(2-methoxypy)): not hygroscopic
SMILES: COc1ccc(-c2ccc(Cn3c(CC(C)(C)C(=O)O)c(SC(C)(C)C)c4cc(OCc5ccccn5)ccc43)cc2)cn1 [Crystalline Free Acid]

SMILES: CC(C)c1ccc2c(c1)c(SC(C)(C)C)c(CC(C)(C)C(=O)O)n2Cc1ccc(Cl)cc1 [MK-866, 3-[1-(4-chlorobenzyl)-3-(tert-butylthio)-5-(isopropyl)-indol-2-yl]-2,2-dimethyl propanoic acid]
efficacy in words [4]: shown efficacy

physical and chemical stability ([1]; conditions not stated): physically and chemically stable
Appearance of mixture after equilibration for 24 hours [2]: Fine Suspension
pH of saturated solution [2]: 9.95
Concentration of filtrate (as mg/ml of free base) [2]: 5.4 mg/mL
Concentration (mg/mL) ([15]; pH about 1.1): about 0.690 mg/mL
Concentration (mg/mL) ([15]; pH about 4.9): about 0.0594 mg/mL
Concentration (mg/mL) ([15]; pH about 8.8): about 0.00573 mg/mL
Concentration (mg/mL) ([15]; pH about 9.2): about 9.80 mg/mL
Concentration (mg/mL) ([15]; pH about 9.8): about 53.1 mg/mL
Concentration ([15]; pH about 10.4): >70 mg/mL
stability to changes in humidity (XRPD after GVS experiment) [3]: stable to changes in humidity
% weight change [3, 16]: −1.54%
% weight change [3, 17]: 3.73%
% weight change [3, 18]: 20.92%
% weight change [3, 19]: −25.51%
% weight change [3, 20]: 20.72%
% weight change [3, 21]: 3.66%
% weight change [3, 22]: −24.45%
hygroscopicity in words [3]: very hygroscopic
total weight change [3]: 26%
SMILES: COc1ccc(-c2ccc(Cn3c(CC(C)(C)C(=O)O)c(SC(C)(C)C)c4cc(OCc5ccccn5)ccc43)cc2)cn1 [Form B]
change after 1 week storage (crystallinity / x-ray powder diffraction pattern, colour) [1]: loses its crystallinity and the colour changes to yellow

SMILES: COc1ccc(-c2ccc(Cn3c(CC(C)(C)C(=O)O)c(SC(C)(C)C)c4cc(OCc5ccccn5)ccc43)cc2)cn1
effect on LTB4 levels in humans, in words ([7]; clinical trial summary): lowers
effect on LTE4 levels in humans, in words ([10]; clinical trial summary): lowers

CYP2C9 induction in words [8]: not an inducer
SMILES: COc1ccc(-c2ccc(Cn3c(CC(C)(C)C(=O)O)c(SC(C)(C)C)c4cc(OCc5ccccn5)ccc43)cc2)cn1 [3-[5-(pyridin-2-ylmethoxy)-3-(2-methyl-2-propylthio)-1-[4-(2]

— US8697730B2, “5-lipoxygenase activating protein (FLAP) inhibitor” (Panmira Pharmaceuticals, LLC, priority 2007, dated 2014)
